From US7344531B2, “Thermal surgical procedures and compositions” (Regents of the University of Minnesota, priority 2003, dated 2008)
“Also recorded” adds a separate entry of the source.

Assays:
[1] = test system: LNCaP Pro 5 human prostate cancer tumor tissue; assay: Cryosurgery of TNF-alpha pre-inflamed LNCaP Pro 5 tumor in dorsal skin flap chamber (DSFC); format: in vivo, male athymic nude mice
Protocol: The dorsal skin flap chamber (DSFC) of male athymic nude mice was seeded with the tumor LNCaP […] human prostate cancer, inflamed with TNF-alpha, subjected to cryosurgery, and assessed according to the following procedure. The dorsal skin of a male athymic nude mouse was sandwiched between two identical anodized aluminum frames, a 19 millimeter (mm) by 22 mm chamber was mounted onto the mouse by three screws, the skin was attached to the chamber with 4-O silk using suture holes, and the skin on the side of the viewing region was removed, exposing the dermis containing the microvasculature on the opposite side of the skin. To provide chambers having tumors, approximately 5×10^6LNCaP […] human prostate tumor cells were mixed with MATRIGEL matrix (BD Biosciences, Bedford, Mass.) as described by Lim et al. (Prostate, 22:109-118 (1993)). Approximately 30 μl of the cell suspension was applied to the surface of the microvascular bed immediately after the initial chamber implantation and the tumor was allowed to grow for 10 days, the skin reaching a total thickness of about 450 micrometers (μm) and the tumor extending approximately 10 mm in diameter. […] After four (4) hours, the mouse was anesthetized, TNF-alpha-induced inflammation was measured by observation of leukocyte rolling, and thereafter cryosurgery was immediately performed in the inflamed tissue. […] The temperature at each thermocouple was recorded using a HYDRA DATA LOGGER SERIES 2 (Fluke, Everett, Wash.). […] The dorsal skin flap chamber was then illuminated with a mercury lamp and a FITC signal-enhancing filter (λ=470-490 nm) to view the contrast fluorescence. A Silicon Intensified Transmission camera (Hamamatsu, North Central Instruments, Twin Cities, Minn.) was used to detect the fluorescent signal, and the signal was recorded with a JVC S-VHS video recorder (JVC Company of America, Aurora, Ill.). […] The end temperature of the cryolesion and the thermal parameters within the cryosurgical ice ball were calculated according to the methods of Chao et al. (Cryobiology, 2004 (in press)). […]

[2] = test system: normal nude mouse hypodermis (normal skin); assay: Cryosurgery of TNF-alpha pre-inflamed normal skin in dorsal skin flap chamber (DSFC); format: in vivo
[3] = test system: Human dermal microvascular endothelial cells (MVEC); assay: Enhancement of direct cellular injury by freeze/thaw after TNF-alpha exposure, MVEC; format: cell-based
Protocol: Cell suspensions of human endothelial cells (MVECs) were used to assess the enhancement of direct cellular injury (DCI) by use of an adjuvant, wherein the adjuvant used is TNF-alpha.
Human dermal microvascular endothelial cells (MVEC) were prepared and grown as adherent monolayers as described by Gupta et al., Experimental Cell Research, 230:244-251 (1997), maintained in a 37° C./5% CO2/95% humidified air environment in T-flasks pre-coated with 1% gelatin in MCDB 131 medium supplemented with 20% heat-inactivated human male serum, hydrocortisone, cAMP, L-glutamine, heparin, endothelial cell growth supplement (Vec Tec, Schenectady, N.Y.) and antibiotics. […]
Control and experimental F/T groups were then assessed for cell viability at varying time points starting 3 hours after intervention. Cell viability was measured microscopically by a fluorescent dye assay (cell viability assay) by an apoptotic/necrotic assay.
The fluorescent dye assay was used to assess the plasma membrane integrity of cells immediately before (control) and after F/T using Hoechst 33342 and propidium iodide (PI). […] Cells were incubated with 9 μM Hoechst 33342 and 7 μM PI for 15 minutes at 37° C., placed on a microslide, cover-slipped and the percentage of dead cells/field determined at 200X using a fluorescent microscope (Olympus BX-50, Tokyo, Japan). […]

[4] = test system: MCF-7 breast cancer cells; assay: Enhancement of direct cellular injury by freeze/thaw after TNF-alpha exposure, MCF-7; format: cell-based
[5] = test system: LNCaP Pro 5 prostate cancer cells; assay: Enhancement of direct cellular injury by freeze/thaw after TNF-alpha exposure, LNCaP Pro 5; format: cell-based, human
[6] = TNF-alpha 10 ng/ml to 1 μg/ml for 4 to 48 hours before freeze/thaw

Substance: TNF-alpha
- position of the edge of the static zone relative to the edge of the ice ball ([1]; LNCaP Pro 5 tumor tissues treated with TNF-alpha): extended beyond the edge of the ice ball
- radius of the edge of the static zone (zone of vascular stasis) ([1]; day 3 post cryosurgery, LNCaP Pro 5 tumor tissue, local 0.2 ng TNF-alpha 4 hours before cryosurgery): 4.07±0.34 mm
- increase of the threshold temperature of cryo-destruction versus tissue without TNF-alpha ([1]; local use of TNF-alpha, LNCaP Pro 5 tumor tissue): more than 10 °C
- minimum temperature required for cryo-destruction ([2]; TNF-alpha-treated normal skin): −9.8±5.8 °C
- position of the edge of the static zone relative to the edge of the ice ball ([2]; inflamed normal skin tissues treated with TNF-alpha): stayed within the edge of the ice ball; also recorded: moved the edge of the static zone closer to the edge of the cryosurgical ice ball
- radius of the edge of the static zone (zone of vascular stasis) ([2]; normal nude mouse hypodermis treated with TNF-alpha, day 3 post cryosurgery): 3.99±0.13 mm
- cryosensitivity of cells in vitro [3, 6]: increase cryosensitivity
- necrosis of inflamed cells in vitro ([3]; apoptosis/necrosis assay): increased necrosis
- cryosensitivity of cells in vitro [4, 6]: increase cryosensitivity
- necrosis of inflamed cells in vitro ([4]; apoptosis/necrosis assay): increased necrosis
- cryosensitivity of cells in vitro [5, 6]: increase cryosensitivity
- necrosis of inflamed cells in vitro ([5]; apoptosis/necrosis assay): increased necrosis
